Data from patent US4110536A, “Derivatives of 5-(indol-3-yl)hydantoin” (Miles Laboratories, Inc., priority 1977, dated 1978).
Where two headings read alike, the source gives them in different places.

Columns and labels:
[1] = cited from earlier work
in vivo = conditions: mouse, ip
Method: (§1) LD50 data were obtained by standard procedures known to the art.
(§2) In order to obtain an indication of the specificity and/or safety margin of the antiarrhythmic effect, the acute toxicity of the compounds was investigated. This was carried out by administering log-spaced intraperitoneal doses of the test compounds to groups of five mice.

[2] = test system: chloroform-induced arrhythmias; conditions: mouse, in vivo, ip, 10 min
Method: The antiarrhythmic activity of the compounds listed above were tested in the experimental model reported by J. W. Lawson (J. Pharmacol. Exp. Therap., 160: 22-31 (1968).
The test compounds were administered in varying intraperitoneal doses to groups consisting of 5 mice. Ten minutes after administration of a given dose of a compound, a mouse was transferred to a covered 300 ml glass beaker that contained a wad of cotton saturated with about 20 ml of chloroform. The animal was observed closely and removed from the beaker immediately after respiratory arrest. The heart was quickly exposed by making an incision through the abdomen, diaphragm, thorax and pericardium for visual inspection of ventricular rate and rhythm. Ventricular contractions were counted for 30 seconds. According to the procedure reported by Lawson, animals with ventricular rate not exceeding 100 contractions during the 30 second observation period were considered protected.

[3] = test system: ventricular arrhythmias induced by digitalis; conditions: prior-art background; cited from earlier work

Method for mice: as §1, §2

Molecule	LD50 at 48 h (in vivo)	selectivity ratio (in vivo)	ED50 [2]	other results
C=C[C@H]1C[N@@]2CC[C@H]1C[C@@H]2[C@@H](O)c1ccnc2ccc(OC)cc12 [Quinidine]				side effects / toxicity ([1]; prior-art background): relatively toxic
CCN(CC)CCCN1C(=O)NC(c2c[nH]c3ccccc23)C1=O (stereo not shown) [Example 15, 3-(3-Diethylaminopropyl)-5-(indol-3-yl)hydantoin]	79 mg/kg	1.8	44 mg/kg	
O=C1NC(Cc2c[nH]c3ccccc23)C(=O)N1CCCN1CCC(c2ccccc2)CC1 (stereo not shown) [Example 9, 5-(Indol-3-ylmethyl)-3-[3-(4-phenyl-1-piperidyl)propyl]hydantoin]	19 mg/kg	2.5	7.5 mg/kg	
O=C1NC(Cc2c[nH]c3ccccc23)C(=O)N1CCCN1CCCCC1 (stereo not shown) [Example 20, 5-(Indol-3-ylmethyl)-3-(3-piperidylpropyl)hydantoin]	190 mg/kg	8	23.8 mg/kg	
O=C1NC(c2c[nH]c3ccccc23)C(=O)N1CCCN1CCCCC1 (stereo not shown) [Example 6, 5-(Indol-3-yl)-3-[3-(piperid-1-yl)propyl]hydantoin]	66 mg/kg	3.1		
5-[(indol-3-yl)methyl]hydantoin [V (R=II)]			72 mg/kg	Therapeutic Index (mice; LD50/ED50, mouse, i.p.): 4.3; LD50 (mice; mouse, in vivo, ip, 2880 min): 307 mg/kg
O=C1NC(Cc2c[nH]c3ccc(Cl)cc23)C(=O)N1CCCN1CCC(c2ccccc2)CC1 (stereo not shown) [Example 11, 5-(5-Chloroindol-3-ylmethyl)-3-[3-(4-phenyl-1-piperidyl)propyl]hydantoin]	69 mg/kg	1.9	37 mg/kg	
C[N+]1(CCCN2C(=O)NC(Cc3c[nH]c4ccccc34)C2=O)CCC(c2ccccc2)CC1 (stereo not shown) [Example 10, 5-(Indol-3-ylmethyl)-3-[3-(4-phenyl-1-piperidyl)propyl]hydantoin methiodide]	69 mg/kg	3.5	19.6 mg/kg	
O=C1NC(=O)C(c2ccccc2)(c2ccccc2)N1 [III, 5,5-diphenyl-2,4-imidazolidinedione]			123 mg/kg	antiarrhythmic effects [3]: specifically antagonizes ventricular arrhythmias induced by digitalis, depresses ventricular automaticity, enhances atrio-ventricular nodal conduction, and reduces the effective refractory period; side effects / toxicity ([1]; in vivo): dizziness, nausea, emesis, nystigmus, and ataxia; side effects / toxicity ([1]; prior-art background, listed as DPH): toxic and may produce atrio-ventricular blockage, bradycardia, or even cardiac arrest
CCN(CC)CCCN1C(=O)NC(c2ccccc2)(c2c[nH]c3ccccc23)C1=O (stereo not shown) [Example 14, 3-(3-Diethylaminopropyl)-5-(indol-3-yl)-5-phenylhydantoin]	48 mg/kg	1.8	27 mg/kg	
O=C1NC(Cc2c[nH]c3ccccc23)C(=O)N1CCCN1CCC(O)(c2ccccc2)CC1 (stereo not shown) [Example 13, 3-[3-(4-Hydroxy-4-phenylpiperid-1-yl)propyl]-5-[(indol-3-yl)methyl]hydantoi]	57 mg/kg	2.5	23 mg/kg	
O=C1NC(c2ccccc2)(c2c[nH]c3ccccc23)C(=O)N1CCCN1CCC(c2ccccc2)CC1 (stereo not shown) [Example 12, 5-(Indol-3-yl)-5-phenyl-3-[3-(4-phenyl-1-piperidyl)propyl]hydantoin]	63 mg/kg	0.9	80 mg/kg	
CCN(CC)CCCN1C(=O)NC(Cc2c[nH]c3ccc(Cl)cc23)C1=O (stereo not shown) [Example 17, 5-(5-Chloroindol-3-ylmethyl)-3-(diethylaminopropyl)hydantoin]	74 mg/kg	1.7	44 mg/kg	
COc1ccc2[nH]cc(CC3NC(=O)N(CCCN4CCC(c5ccccc5)CC4)C3=O)c2c1 (stereo not shown) [Example 21, 5-(5-Methoxyindol-3-ylmethyl)-3-[3-(4-phenylpiperid-1-yl)propyl]hydantoin]	24 mg/kg	2.7	9 mg/kg	
CCN(CC)CCCN1C(=O)NC(Cc2c[nH]c3ccc(OC)cc23)C1=O (stereo not shown) [Example 18, 3-(3-Diethylaminopropyl)-5-(5-methoxyindol-3-ylmethyl)hydantoin]	61 mg/kg	4.7	13 mg/kg	
